According to the supplement of paper PMC11616607:

Legend:
Assay in all cases: drug sensitivity score (DSS) from 5-point dose-response viability curve (DSS (area-under-curve based score)); higher = more sensitive (stronger growth inhibition or killing); extreme values may be limits of the assay
Settings in all cases: exposure time: 72 h; concentration range: 5 concentrations over 10,000-fold range
CAOV3 = tested on: CAOV3
Summary of the method: (§1)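 Viability of ovarian cancer and normal ovarian cell lines was read by CellTiter-Glo luminescence after 3 days at 37°C and 5% CO2 in 384-well plates holding 1,500 cells per well. Drugs had been dispensed in DMSO or water with an Echo 550 at five concentrations over a 10,000-fold range. Using Breeze software, a drug sensitivity score was assigned per cell line and drug, higher scores meaning more sensitive, and zero means no response.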

COV318 = tested on: COV318
Summary of the method: as §1

COV362 = tested on: COV362
Summary of the method: as §1

HOSE1C = tested on: HOSE1C
Summary of the method: as §1

HOSE2C = tested on: HOSE2C
Summary of the method: as §1

JHOS2 = tested on: JHOS2
Summary of the method: as §1

Kuramochi = tested on: Kuramochi
Summary of the method: as §1

OV90 = tested on: OV90
Summary of the method: as §1

OVCAR4 = tested on: OVCAR4
Summary of the method: as §1

OVCAR5 = tested on: OVCAR5
Summary of the method: as §1

OVCAR8 = tested on: OVCAR8
Summary of the method: as §1

Ovsaho = tested on: Ovsaho
Summary of the method: as §1

Row | Compound | drug sensitivity score (CAOV3) | drug sensitivity score (COV318) | drug sensitivity score (COV362) | drug sensitivity score (HOSE1C) | drug sensitivity score (HOSE2C) | drug sensitivity score (JHOS2) | drug sensitivity score (Kuramochi) | drug sensitivity score (OV90) | drug sensitivity score (OVCAR4) | drug sensitivity score (OVCAR5) | drug sensitivity score (OVCAR8) | drug sensitivity score (Ovsaho)
1 | Cc1sc2c(c1C)C(c1ccc(Cl)cc1)=N[C@@H](CC(=O)Nc1ccc(O)cc1)c1nnc(C)n1-2 [Birabresib] | 13.1 | 1.7 | 2.3 | 15.1 | 13.4 | 5.4 | 12.5 | 10.2 | 8.1 | 10.8 | 12.6 | 12.9
2 | CC[C@H](NC(=O)[C@H](C)NC)C(=O)N1C[C@@H](O)C[C@H]1Cc1c(-c2[nH]c3cc(F)ccc3c2C[C@@H]2C[C@H](O)CN2C(=O)[C@H](CC)NC(=O)[C@H](C)NC)[nH]c2cc(F)ccc12 [Birinapant] | 9.2 | 0.2 | 0 | 0 | 0 | 5.6 | 0.4 | 0.8 | 12.6 | 0 | 1.9 | 11.6
3 | Cc1c(N)nc([C@H](CC(N)=O)NC[C@H](N)C(N)=O)nc1C(=O)N[C@H](C(=O)N[C@H](C)[C@@H](O)[C@H](C)C(=O)N[C@H](C(=O)NCCc1nc(-c2nc(C(=O)NCCC[S+](C)C)cs2)cs1)[C@@H](C)O)[C@@H](OC1OC(CO)C(O)C(O)C1OC1OC(CO)C(O)C(OC(N)=O)C1O)c1cnc[nH]1 (stereo not given in full) [Bleomycin] | 2.2 | 0 | 0 | 2.8 | 4.5 | 0.8 | 0 | 2.6 | 0.6 | 2.3 | 5.6 | 1
4 | CC(C)C[C@H](NC(=O)[C@H](Cc1ccccc1)NC(=O)c1cnccn1)B(O)O [Bortezomib] | 26.4 | 28.3 | 24.7 | 27.4 | 24.4 | 24.5 | 9.3 | 22.8 | 24.6 | 23.9 | 23 | 17.8
5 | COc1cc(Nc2c(C#N)cnc3cc(OCCCN4CCN(C)CC4)c(OC)cc23)c(Cl)cc1Cl [Bosutinib] | 8 | 2 | 8.5 | 6.8 | 6.2 | 7 | 8.8 | 8.7 | 5.7 | 9.4 | 6.7 | 10.5
6 | COc1cc(N2CCC(N3CCN(C)CC3)CC2)ccc1Nc1ncc(Cl)c(Nc2ccccc2P(C)(C)=O)n1 [Brigatinib] | 3.3 | 3.5 | 1.6 | 0.3 | 2.9 | 2.1 | 3.5 | 4 | 1.7 | 3.7 | 0 | 4.3
7 | Cc1cc2c(F)c(Oc3ncnn4cc(OC[C@@H](C)O)c(C)c34)ccc2[nH]1 [Brivanib] | 0 | 0 | 0 | 0 | 0 | 0 | 0 | 0 | 0 | 0 | 0 | 0
8 | CCC/C=C/C=C/C(=O)O[C@H]1/C(=C/C(=O)OC)C[C@H]2C[C@H]([C@@H](C)O)OC(=O)C[C@H](O)C[C@@H]3C[C@H](OC(C)=O)C(C)(C)[C@](O)(C[C@@H]4C/C(=C/C(=O)OC)C[C@H](/C=C/C(C)(C)[C@]1(O)O2)O4)O3 [Bryostatin 1] | 0.1 | 1.4 | 8.9 | 10.3 | 1.6 | 0 | 0 | 1.4 | 1.1 | 0.2 | 0 | 0
9 | Nc1cc(C(F)(F)F)c(-c2cc(N3CCOCC3)nc(N3CCOCC3)n2)cn1 [Buparlisib] | 8.7 | 4.6 | 3.8 | 8.6 | 8.8 | 4.6 | 6.1 | 5.1 | 5.3 | 8.8 | 7.7 | 6.5
10 | CCN1C(=O)CNc2ncc(-c3ccc(-c4nc[nH]n4)nc3C)nc21 [CC-115] | 8 | 5.6 | 2.4 | 12 | 9.2 | 7.5 | 7.3 | 10.4 | 9.3 | 7.4 | 8.5 | 11.2
11 | COc1cc(C)[nH]c(=O)c1CNC(=O)c1c(C)n([C@H](C)C2CCOCC2)c2ccccc12 [CPI-360] | 0 | 0 | 0 | 0 | 0 | 0.2 | 0 | 0.6 | 0 | 0.8 | 0 | 0
12 | Cc1noc2c1-c1ccccc1C(c1ccc(Cl)cc1)=N[C@H]2CC(N)=O [CPI-0610] | 8.5 | 4.1 | 5.9 | 9.3 | 9.9 | 5 | 13 | 7.6 | 5 | 9.3 | 6.4 | 12.6
13 | CN(C)c1cc2c(cc1Sc1nc3c(N)nccc3n1CCNCC(C)(C)C)OCO2 [CUDC-305] | 14.5 | 4 | 8.8 | 11.5 | 15.3 | 10.8 | 5.9 | 14.5 | 8.5 | 10.8 | 16.4 | 3
14 | COc1ccc(-c2nc(N3CCOCC3)c3sc(CN(C)c4ncc(C(=O)NO)cn4)cc3n2)cn1 [CUDC-907] | 31.3 | 21.3 | 20.3 | 45.8 | 42.7 | 26.4 | 29.4 | 37 | 26.2 | 38.3 | 41.5 | 29.2
15 | CO[C@H]1C(=O)[C@]2(C)[C@@H](OC)C[C@H]3OC[C@@]3(OC(C)=O)[C@H]2[C@H](OC(=O)c2ccccc2)[C@]2(O)C[C@H](OC(=O)[C@H](O)[C@@H](NC(=O)OC(C)(C)C)c3ccccc3)C(C)=C1C2(C)C [Cabazitaxel] | 29.3 | 7.3 | 7.8 | 29.9 | 29.8 | 12.8 | 10.7 | 13.2 | 4.3 | 25.6 | 30.6 | 9
